The text below walks through data of publication PMC6099735, “Piplartine Analogues and Cytotoxic Evaluation against Glioblastoma” (Molecules : A Journal of Synthetic Chemistry and Natural …, 2018).

Values after ≈ are worked out from the molar mass of the structure shown.

Series [1] relates to BF16F10-Nex2 (murine melanoma). On the set-up: method as in PMID 25920262. The note with it: MTT test; cited from earlier work. A general note: Tetrazolium dyes change colour on reduction, which living cells bring about.
Series [2] has as its system U87MG (human glioblastoma). On the set-up: method as in PMID 25920262. The note with it: MTT test; cited from earlier work.
The test system of series [3] is HL-60 (human leukemic cell). On the set-up: method as in PMID 25920262. The note with it: MTT test; cited from earlier work.
For series [4], the system named is HCT (human colon carcinoma). On the set-up: method as in PMID 25920262. As to conditions: MTT test; cited from earlier work.
Series [5] concerns A2258 (human melanoma). On the set-up: method as in PMID 25920262. The note with it: MTT test; cited from earlier work.
For series [6], the system named is HeLa (human cervical carcinoma). On the set-up: method as in PMID 25920262. The note with it: MTT test; cited from earlier work.
For series [7], the system named is U87MG cells. Briefly: Total antioxidant capacity (TAC) assay. It is filed as cell-based, human. As to conditions: 48 h, concentrations 0.78 and 50 μg/mL, compared with controls. How it is done: (§1) The total antioxidant capacity (TAC) and the total oxidant status (TOS) levels were evaluated in samples from treated and untreated cultures using colorimetric measurement methods.
(§2) The commercially available kits were purchased from (Rel Assay Diagnostics®, Gaziantep, Turkey) to estimate the level of TAS and TOS. As a summary, the cells were seeded at 10^6 cells/well in 48-well plates, treated with compound 10 as described above. After 48 h incubation, plasma samples of treated and untreated cultures were transferred to a new plate, mixed with reaction solution and incubate for 10 min at room temperature. After that, the absorbance was read spectrophotometrically and the level of TAS and TOS were calculated according to the given equation.

The test system of series [8] is peripheral human whole blood (PHWB) cells. The experiment in a line: Biosafety: LDH cytotoxicity on cultured blood cells. The note with it: 0.78 to 50 μg/mL. Format: cell-based. How it is done: (§3) To evaluate biosafety of 10, its cytotoxic and genotoxic potential were investigated on cultured peripheral human whole blood (PHWB) cells. Firstly, the cytotoxicity testing was performed by MTT and LDH assays. The human blood cells exposed to 0.78 to 50 μg/mL of 10. […] Afterwards, genotoxic potential was assessed by SCE testing and determination of 8-OH-dG.
(§4) Human peripheral blood cells were cultured in order to evaluate the biosafety of 10. To assess the cytotoxicity and genotoxicity potential of 10, MTT, LDH, Sister chromatid exchange (SCE) and 8-hydroxy-2′-deoxyguanosine assays were assessed on cultured blood cells.

For series [9], the system named is U87MG cells. Briefly: MTT cell viability assay, cytotoxic activity against proliferation of U87MG cells. Format: cell-based, human. As to the method: To evaluate the cytotoxic potential of compounds 2–19 against human U87MG, glioblastoma cells were used with several concentrations (0 to 50 μg/mL). After 48 h of incubation, cell viability rates were established by MTT and LDH analysis. IC50 values of each analogue were determined due to observed cell viability results after MTT assay. All tested analogues led to inhibition of cellular proliferation rates as compared to untreated cells in a clear concentration and compound type dependent manners, as illustrated in Table 1 and Figure 2.
Human glioblastoma (GBM) cell line U87MG (American Type Culture Collection; Rockville, MD, USA) within passage number 15–20 were grown in an incubator at 37 °C in a humidified atmosphere of 5% CO2. They were grown in Eagle’s Minimal Essential Medium from Sigma-Aldrich (Saint Louis, MO, USA), supplemented with 10% fetal bovine serum (FBS) and 100 μg/mL of each of the following antibiotics: penicillin and streptomycin [66].
To examine the effects of compounds on cell viability, an MTT assay was performed. U87MG cells were seeded at 1 × 10^4 cells per well in 96-well plate and allowed to attach for 24 h. Then the cells were exposed to different concentrations of 2–19 (0.78, 1.56, 3.125, 6.25, 12.5, 25 and 50 μg/mL) for 48 h. All the compounds were dissolved in dimethyl sulfoxide (DMSO), and diluted in serum-free culture medium. After the incubation, a 3-(4,5-dimethylthiazol-2-yl)-2,5-diphenyltetrazolium bromide (MTT) solution was applied to cell cultures according to the manufacturer’s instructions (Cayman Chemical Company®, Ann Arbor, MI, USA). After 3 h of incubation, MTT-formazan crystals were dissolved in DMSO and absorbance was measured at 570 nm on a plate reader and compared with control, untreated cells. The half-maximal inhibitory concentration values (IC50) were determined by MTT assay performed in four replicates.

The test system of series [10] is U87MG cells. The experiment in a line: Total oxidant status (TOS) assay. As to conditions: 48 h, all the concentrations. It is filed as cell-based, human. How it is done: as §1, §2
Series [11] relates to U87MG cells. The experiment in a line: qRT-PCR gene expression, custom plate with 15 cancer pathway genes. Format: cell-based, human. The note with it: IC50 concentration, 48 h. As to the method: To find out the differences in the level of gene expression in U87MG cells exposed using compound 10, a custom plate with 15 different genes involved in cancer related pathways was used via qRT-PCR studies.
Total RNA was isolated from cultured cells using PureLink® RNA Mini Kit (Invitrogen, Carlsbad, MA, USA) following the instructions described by the manufacturer. For quantitative reverse-transcription polymerase chain reaction (qRT-PCR), RNA was reverse-transcribed to cDNA by using a High-Capacity cDNA Reverse Transcription kit (Applied Biosystems, Foster City, CA, USA) according to the manufacturer’s protocol. Real-time PCR analyses were performed using the resulting total cDNA on a TaqMan® custom plate (Applied Biosystems) designed with 15 different genes (EGFR, AKT1, AKT2, NFκB1, NFκB1A, NFκB2, PTEN, KRAS, PIK3CA, PIK3R1, TP53, RAF1, BRAF, DVL1, FOS). Results were normalized to the expression of 18SRNA. qRT-PCR and data collection were performed on 7500 Fast Real-Time PCR (Applied Biosystems). Data analyses were performed using the The Applied Biosystems 7500 Fast System SDS software (Foster City, CA, USA).
In general terms: Quantitative PCR measures a nucleic acid by following its amplification.

In series [12] the test system is U87MG cells. Briefly: Apoptosis detection by Hoechst 33,258 staining. Format: cell-based, human. As to conditions: 48 h at IC50 concentration, compared with control group. As to the method:
Cell apoptosis induced by compound 10 was examined by Hoechst 33,258 staining and observed under a fluorescence microscope at 400× magnification.
The control and formulation treated cells were incubated for 48 h and were cultured in six-well cell culture plates for 48 h. after incubation, the medium was removed and the cells were fixed with 4% paraformaldehyde in phosphate buffered saline at 4 °C for 30 min. Following the washing cells three times with phosphate-buffered saline (PBS). The cells were then stained with 1 μL Hoechst 33,258 (5 μg/mL; Sigma-Aldrich, Saint Louis, MO, USA) and incubated at room temperature in the dark for 5 min. Changes in nuclear morphology were visualized under a fluorescent microscope (excitation, 350 nm; emission, 460 nm; Leica® DM IL LED, Wetzlar, Germany).

The test system of series [13] is peripheral human whole blood (PHWB) cells. The experiment in a line: Biosafety: MTT cytotoxicity on cultured blood cells. Format: cell-based. As to conditions: 0.78 to 50 μg/mL. As to the method: as §3, §4
Series [14] shares this test system. The experiment in a line: Sister chromatid exchange (SCE) testing. It is filed as cell-based. The note with it: 72 h, vs control group. As to the method: as §3
Peripheral blood samples were incubated with 10 (50 μg/mL) at 37 °C for 72 h in culture medium (PB-MAX Karyotyping Medium, Gibco®, Baecelona, Spain) with 5.0 mg/mL of phytohemagglutinin (Sigma Aldrich, Steinheim, Germany). 5-Bromodeoxyuridine (BrdU) (10 μg/mL) was added to cell cultures at initiation. At 1.5 h before harvesting, colcemid (0.5 μg/mL) were added to cells. Then cells were treated with a hypotonic solution (0.075 M KCl), followed by three times fixation step in methanol/acetic acid (3:1, v/v). Cell suspensions were dropped on slides and air-dried. Three days later, the slides were stained according to the fluorescence plus Giemsa (FPG) procedure. Slides were observed under a fluorescence microscope and scores were calculated as SCEs per cell.

Setting [15] is: significant = >0.5 fold change vs untreated.

For the compound `COc1cc(/C=C/C(=O)N2CCC=CC2=O)cc(OC)c1OC` [Compound 1, Piplartine], the IC50 in series [1], in [2], in [3], in series [4], in [5] and in series [6] was more than 200 µg/mL throughout.

As to `COc1cc(/C=C/C(=O)OC(c2ccccc2)c2ccccc2)cc(OC)c1OC` [Compound 10, (E)-Benzhydryl 3-(3,4,5-trimethoxyphenyl)acrylate], the “total antioxidant capacity (TAC) levels” value in series [7] was “significant increase of TAC levels”. Further, in [8], the “cytotoxicity on blood cells, cell proliferation (LDH assay)” value is “did not lead to any significant (p > 0.05) changes in cell proliferation”. Further, in series [9] (0 to 50 μg/mL, 48 h, MTT and LDH analysis, compared to untreated cells), the “cell viability / cellular proliferation rates” value is “marked concentration-dependent inhibitory effect”. In addition, the IC50 (as a rule, the concentration that inhibits the measured activity by half) in [9] (Homo sapiens, U-87 MG, MTT assay, 48 h exposure, 0.78-50 μg/mL, mean ± SEM of four experiments) was 2.58 ± 0.35 µg/mL (≈ 6.38 µM). The “total oxidant status (TOS) levels” value in series [10] is “did not change the TOS levels”. The “gene expression of BRAF, DVL1, EGFR, FOS, KRAS, NF-ĸB1A, RAF1, PIK3CA and PIK3R1” value in series [11] (<0.5 fold change) is “slight and insignificant alterations”. Moreover, in series [11] (setting [15]), the AKT1 gene expression entry is listed as “down-regulated” and the AKT2 gene expression result is given as “down-regulated”. For the same compound, in [11] (vs untreated), the NF-ĸB1 gene expression entry is on record as “up-regulated”, the NF-ĸB2 gene expression result is given as “up-regulated”, the PTEN gene expression result is “up-regulated” and the TP53 gene expression entry is “up-regulated”. The “apoptosis (nuclear morphology, Hoechst 33,258 staining)” value in series [12] was “enhanced chromatin condensation and nuclear fragmentation were detected”. Moreover, the “cytotoxicity on blood cells, cell proliferation (MTT assay)” value in [13] is “did not lead to any significant (p > 0.05) changes in cell proliferation”. For the same compound, in [14], the “genotoxicity, frequencies of SCEs” value is listed as “not significant differences in the frequencies of SCEs”.
